Here are results for four compounds from US20230042367A1, “METHODS AND COMPOSITIONS FOR TREATING CANCERS HAVING F-BOX AND WD-REPEAT PROTEIN 7 (FBXW7) ALTERATIONS AND/OR CYCLIN L1 (CCNL1) GAIN OR AMPLIFICATION” (THE GOVERNING COUNCIL OF THE UNIVERSITY OF TORONTO, priority 2019, published 2023).

Test [1] has as its system C-33-A cells (FBXW7 mutation). Briefly: Dose-response assay in cervical cancer cell line panel (Ca-Ski, DoTc2-4510, SiHa, C-33-A). Format: cell-based. As to the method: (§1) HPAF-II, C33A, SiHa HEK293T cells (ATCC) were grown in DMEM (4.6 g/L D-glucose, L-glutamine)+10% fetal bovine serum+5% Anti-Anti at 37° C. and 5% CO2. Caski cells were grown in RPMI-1640+10% fetal bovine serum+5% Anti-Anti at 37° C. and 5% CO2. For serum starvation, regular growth media was removed, and replaced with DMEM (4.6 g/L D-glucose, L-glutamine)+5% Anti-Anti for 18 h. CHIR99021 was used at 4 nM.
(§2) All cells were seeded in triplicate at 2500 cells/well. The following day, a dose-response treatment of OTS964 (Cayman Chemicals) or AZD6738 (SelleckChem). At 3d and 7d of treatment, respectively cell viability was determined using CellTiter-Glo (Promega) as per manufacturer's instructions.

For test [2], the system named is FBXW7^−/− HPAF-II cells. Briefly: Dose-response assay (CellTiter-Glo), FBXW7 knockout HPAF-II cells compared with wildtype. Format: cell-based. As to the method:
as §1
(§3) HPAF-II mutant cells (APC-truncation, AXIN-knockout, FBXW7-knockout) were transfected via electroporation using the Neon system (Thermo) under the following conditions; 2 μg of DNA (sgRNA construct pX330) 1150V, 30 ms and 2 pulses. Cells were allowed to recover for 2 days before the addition of 100 nM LGK-974 to enrich for mutations driving Wnt pathway activation. Cell lines were validated for editing using TIDE (tracking of insertions and deletions (Brinkman et al 2014).
as §2
(In general: ATP-based viability assays read luminescence as a measure of living cells.)

The test system of test [3] is CCNL1. Briefly: Western blot of CCNL1 levels after GSK3 inhibitor treatment. Format: cell-based. The settings on record: CHIR99021 used at 4 nM, FIG. 6. As to the method: Using the methods of Example 8, a co-expression analysis followed by cycloheximide chase illustrated the effect of FBXW7 expression on CCNL1 stability. […] Mutation in the substrate-recognition domain of FBXW7 lead to a robust stabilization of CCNL1 levels.
as §1
All samples were lysed in 4× Laemmli Sample Buffer (50 mM Tris-HCl pH 6.8, 2% SDS, 10% glycerol, 1% β-mercaptoethanol, 12.5 mM EDTA, 0.02% bromophenol blue). Lysates were sonicated, boiled, and centrifuged to pellet insoluble material. Approx 10 μg were loaded per sample on a 4-15% SDS-PAGE Stain-Free TGX BioRad precast gel. Gels were run at 150V for approximately 60 minutes. Gels were transferred to methanol-activated PVDF at 90V for 120 minutes. Membranes were blocked in 5% milk in Tris-buffered Saline (pH 7.4)+1% Tween-20 (TBS-T) for 1 hr, and incubated with corresponding primary antibodies overnight. […]
On the technique in general: In western blotting, separated proteins are transferred to a membrane and probed.

Test [4] deals with HPAF-II cells. As to the kind of experiment: Clonogenic assay of LGK974 sensitivity in HPAF-II wild type and knockout cells. Type of test: cell-based. The procedure:
As validation, each of the genes discovered in this LGK974 positive selection screen were knocked-out in HPAF-II cells and the sensitivity to LGK974 was determined using clonogenic assays. The assay tested HPAF-II wild type cells, HPAF-II wild type cells treated with LGK974, HPAF-II cells with the gene APC knocked out and treated with LGK974, HPAF-II cells expressing a degradation resistant mutant (DegR)-ßCatenin and treated with LGK974, HPAF-II cells with the AXIN gene knocked out and treated with LGK974, and HPAF-II cells with the FBXW7 gene knocked out and treated with LGK974.
as §3

Test [5] concerns HPAF-II cells. Briefly: LGK974 treatment of RNF43 mutant HPAF-II cells (proliferation, LD90 dose for CRISPR screen). Type of test: cell-based. The source says:
HPAF-II cells harbor a mutation in RNF43 a negative regulator of the Wnt signaling pathway and as a result these cells are exquisitely dependent on the presence of Wnt ligands. […] Genome wide CRISPR-Cas9 screen was used to identify genes underlying PORCN inhibitor sensitivity, specifically, gene knockouts mediating LGK974 resistance. To do this, the RNF43 mutant cell line HPAF-II was transduced with the genome-wide TKO gRNA library and treated with a LD90 dose of the PORCN inhibitor LGK974 (Liu et al 2013). Under these conditions, the vast majority of cells undergo cell cycle arrest, but a few clones bypassed this process and emerged during the selection. Next generation sequencing of the resistant clones identified gRNA targeting several known negative regulators of Wnt signalling—including APC and AXIN1 that re-activated the ßcatenin pathway distal to the receptor complex. […]
HPAF-II cells were infected with the Toronto knockout library version 1 (TKOv1)—a pooled sgRNA lentiviral library (Hart et al2015) at a multiplicity of infection of 0.3, in the presence of 8 μg/ml polybrene (Sigma) for 24 h. […] Sequenced gRNAs were mapped to the TKOv1 library using MaGECK 0.5.3, and read counts were normalized by total reads per sample before averaging biological replicates and determining gRNA enrichment.

For test [6], the system named is wildtype HPAF-II cells. As to the kind of experiment: Dose-response assay (CellTiter-Glo), wildtype HPAF-II cells. Format: cell-based. Conditions: FIG. 9. As to the method: as §1, §2
Test [7] concerns Cervical cancer patient-derived cancer organoids. As to the kind of experiment: Viability of patient-derived cervical cancer organoids (Cell Titer Glo). Conditions: 7 days treatment, a subset of organoid models, FIGS. 10 and 11.
Procedure: Cervical cancer patient-derived cancer organoids were treated with dose-response of OTS964 for 7 days. Following treatment, organoids were imaged, and viability was measured using Cell Titer Glo.

The structures appear in SMILES notation. Entries after “also recorded” stand apart in the source; their conditions may differ.

Turning to `C[C@@H]1COCCN1c1cc(C2([S@](C)(=N)=O)CC2)nc(-c2ccnc3[nH]ccc23)n1` [AZD6738, (R)-imino(methyl)(1-(6-((R)-3-methylmorpholino)-2-(1H-pyrrolo[2,3-b]pyridin-4-yl)pyrimidin-4-yl)cyclopropyl)-I6-sulfanone], the “enhanced activity in C33A compared to Caski and SiHa cell lines” value in test [1] (AZD6738, FIG. 15D) is listed as 4-6 fold. Moreover, the “cell viability under AZD6738 in cervical cancer cell line panel” value in test [1] (C33A, FIG. 15D) is “highest susceptibility; also recorded: highly susceptible”. In addition, the “cell viability under AZD6738, FBXW7^−/− vs wildtype HPAF-II” value in test [2] (7d treatment, FIG. 15B) is recorded as “much more susceptible; also recorded: hypersensitivity”.
With `Cc1c[nH]c(-c2cnc(NCCNc3ccc(C#N)cn3)nc2-c2ccc(Cl)cc2Cl)n1` [CHIR99021], the “CCNL1 levels after treatment with GSK3 inhibitor” value in test [3] is listed as “increased levels of CCNL1”.
For `Cc1cc(-c2ncc(CC(=O)Nc3ccc(-c4cnccn4)cn3)cc2C)ccn1` [LGK974], in test [4] (APC and AXIN1 knockout HPAF-II), the “growth under LGK974 after knockout of APC and AXIN1” value was “fully rescued the growth”. The “resistance to LGK974 after knockout of FBXW7” value in test [4] (FBXW7 knockout HPAF-II) is reported as “partial resistance”. For the same compound, the “growth of HPAF-II wildtype cells under LGK974” value in test [4] (wildtype (RNF43 mutation)) is “robustly arrested the growth”. Besides, the LD90 dose in test [5] (HPAF-II cells, positive selection screen) is 20 nM. Further, in test [5] (RNF43 mutant HPAF-II), the “effect of LGK974 treatment on HPAF-II cells” value is “cell cycle arrest and strong inhibition of proliferation”.
Regarding `Cc1cc(O)c(-c2ccc([C@@H](C)CN(C)C)cc2)c2c1[nH]c(=O)c1sccc12` [OTS964, 9-[4-[(1R)-2-(dimethylamino)-1-methylethyl]phenyl]-8-hydroxy-6-methyl-thieno[2,3-c]quinolin-4(5H)-one], the “OTS964 dose response in cervical cancer cell line panel” value in test [1] (C-33-A vs Ca-Ski, DoTc2-4510, SiHa, FIG. 14A) is reported as “hypersensitive”. In addition, in test [2] (FBXW7^−/− vs wildtype HPAF-II cells, proliferation, FIG. 9), the “sensitivity of FBXW7 mutant cells to CDK11 inhibition relative to wildtype” value is listed as “at least 5 times”. The “proliferation response to OTS964, FBXW7 knockout vs wild type cells” value in test [2] (HPAF-II, 3d treatment, FIG. 9) is listed as “striking increase in sensitivity; also recorded: hypersensitive”. In addition, the “dose at which inhibition in wildtype cells was seen (only at the highest dose tested)” value in test [6] was 1 µM. In addition, the “relative viability of cervical cancer organoids under OTS964” value in test [7] is reported as “sensitive”.
